Activity calls are given as the source filed them.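 The calls were made as follows: active = toxic to mouse fibroblast host cells, with IC50 below 50 µM; inactive = the rest.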
system: NIH-3T3 viability, ATP luminescence; experiment: murine fibroblast viability via ATP level – cell-based, murine fibroblasts, cytotoxicity control for Trypanosoma cruzi inhibitor project (AID 1159561); conditions: 4 days

SMILES	IC50
Cc1ccc(NC(=O)C(C)n2nc([N+](=O)[O-])c(Br)c2C)cc1Cl (configuration not stated)	13 µM
O=C(NC(c1ccc(Cl)cc1)c1cnccn1)C1CCN(C(=O)Nc2cccc(C(F)(F)F)c2)CC1 (configuration not stated)	40 µM
COc1ccccc1C=CCN1C[C@H]2CCC[C@@H](C1)C2(O)c1cccnc1 (some centres not stated)	32 µM
Cc1cc(N(C)C)nc2ccc(Cc3cnc(N)nc3N)cc12	10 µM
Cc1nc(N2CCC(C(=O)N3CCC(O)(c4cccnc4)CC3)CC2)nc2ccc(C(C)C)cc12	25 µM
COc1cccc(C(=O)[C@H]2C[C@@H]2CN(Cc2cccnc2)Cc2cccnc2)c1	20 µM
COc1cccc(CCNC(=O)C(c2cn[nH]c2)N2CCN(c3ccc(Cl)cc3)CC2)c1 (configuration not stated)	32 µM
CNc1cc(C)nc(C2CN(C(=O)c3n[nH]c4ccccc34)CCO2)c1 (configuration not stated)	> 50 µM (inactive)
Fc1ccc(OC2CC(NCc3cccc4cn[nH]c34)C2)cc1C(F)(F)F (configuration not stated)	13 µM
O=C(CSc1ccc(-c2ccccn2)nn1)Nc1ccc(Cl)cc1	32 µM
CC1=C(C(=O)Nc2ccc(Cl)cc2)C(c2ccncc2)n2ncc(C(=O)Nc3ccccc3)c2N1 (configuration not stated)	32 µM
O=C(NC1C(=O)N(c2ccccc2)C1c1cccnc1)c1ccc(Cl)s1 (configuration not stated)	> 50 µM (inactive)
CN(C)c1ccc(-c2cc3nccnc3c(OC[C@H]3CCCNC3)n2)cn1	16 µM
O=C(Nc1ncc([N+](=O)[O-])s1)C1CC1	32 µM
O=c1[nH]c(C=Cc2cccc(OCCOc3ccccc3)c2)nc(O)c1[N+](=O)[O-]	> 50 µM (inactive)
COc1ccc(CN2CCCCC2c2nc(-c3cccnc3)no2)cc1 (configuration not stated)	> 50 µM (inactive)
Cc1c([N+](=O)[O-])c(C(=O)Nc2sc3c(c2C#N)CCC(C)C3)nn1C (configuration not stated)	13 µM
O=c1ccn(-c2ccc([N+](=O)[O-])cc2Cl)c2ccc(F)cc12	> 50 µM (inactive)
N#Cc1c(Oc2cccc(Cl)c2)cccc1[N+](=O)[O-]	20 µM
CN(Cc1ccc(F)cc1)c1ccc(OCC(=O)N2CCCCC2c2cccnc2)nn1 (configuration not stated)	10 µM
N#Cc1cccc(CN2CCC(c3nc(-c4ccc(C(F)(F)F)nc4)no3)CC2)c1	> 50 µM (inactive)
O=C1CCCCCC1(Cc1cnc[nH]1)c1ccc(Cl)cc1Cl (configuration not stated)	20 µM
O=C1CN(C2CCCc3c(OCc4ccncc4)cccc32)C(=O)N1C1CCCCC1 (configuration not stated)	> 50 µM (inactive)
Cc1cccc(NS(=O)(=O)c2cnc3sc(C)cn3c2=O)c1	> 50 µM (inactive)
OCCCNc1nc(Nc2ccncc2)nc2ccccc12	> 50 µM (inactive)
COc1ccc(C2CC(c3ccccc3Cl)=NN2C(=O)CNC(=O)C2CCC2)cc1 (configuration not stated)	32 µM

SMILES	IC50
COc1ccc(NS(=O)(=O)c2cc(-c3cc(C)[nH]n3)ccc2C)cc1OC	> 50 µM (inactive)
CC1=NN(C(=O)CCn2cnc([N+](=O)[O-])n2)C(O)(C(F)(F)F)C1 (configuration not stated)	> 50 µM (inactive)
CC(C(=O)Nc1ccccc1F)N(C)CC(=O)Nc1cccc2ccccc12 (configuration not stated)	13 µM
O=C(NCCc1nc(-c2ccc(F)c(F)c2)n[nH]1)C1CCCCC1	> 50 µM (inactive)
COc1ccc(-c2nc3ccncc3c(=O)n2CCOc2ccccc2)cc1	32 µM
Cc1ccc2c(c1)-c1onc(C(=O)N3CCCCC3c3cccnc3)c1CO2 (configuration not stated)	20 µM
COc1ccc(S(=O)(=O)NCc2ccc(-c3ccc(CN(C)CCO)cc3)cc2)cc1	16 µM
CCC1Oc2cc(S(=O)(=O)N(C)CC(=O)N3CCc4ccccc4C3)c(C)cc2NC1=O (configuration not stated)	> 50 µM (inactive)
Cc1ccc2nc(N(Cc3cccnc3)C(=O)CCc3ccccc3)sc2c1	16 µM
Cc1cc2cncn2c(C2CCCCN2C(=O)c2cccs2)n1 (configuration not stated)	> 50 µM (inactive)
O=C(c1cc2cc(Cl)ccc2[nH]1)N1CCCCC1c1cccnc1 (configuration not stated)	40 µM
O=C(NCc1nnc2n1CCCCC2)c1ccc(-c2ccc(F)cc2)o1	> 50 µM (inactive)
CC(=O)Nc1ccc(-c2csc(NC(=O)c3ccc([N+](=O)[O-])s3)n2)cc1	6.3 µM
Cn1c(CN2CCN(c3ncc(C(F)(F)F)cc3Cl)CC2)nc2ccncc21	10 µM
COc1ccc2nc(N(Cc3cccnc3)C(=O)C3CCC3)sc2c1	50 µM
COc1ccc2ncc(=O)n(CCN3CCOC(CNCc4ccc(C(F)(F)F)cc4F)C3)c2n1 (configuration not stated)	4 µM
COc1ccc(C(=O)Nc2cc(C(F)(F)F)ccc2N2CCOCC2)c(OC)c1	32 µM
O=C(NCCc1ccccn1)C(c1cn[nH]c1)N1CCN(c2ccc(Cl)c(Cl)c2)CC1 (configuration not stated)	32 µM
O=S(=O)(NCC(c1cccnc1)N1CCN(c2ccc(F)cc2)CC1)c1cccs1 (configuration not stated)	> 50 µM (inactive)
CC(=O)Nc1ccc(-c2noc(CC3CCCN(Cc4cccc(F)c4C)C3)n2)cc1 (configuration not stated)	25 µM
O=c1[nH]cnc2c([C@@H]3O[C@H](CO)[C@@H](O)[C@H]3O)[nH]nc12	> 50 µM (inactive)
COc1ccc2c(Cl)c(C(=O)N3CCC3)sc2c1Cl	> 50 µM (inactive)
Clc1ccc(OCCN2CCCCC2c2cccnc2)c(Cl)c1 (configuration not stated)	25 µM
COc1ccc(NS(=O)(=O)c2cc(NC(=O)Cc3ccc(C)cc3)ccc2N2CCOCC2)cc1	25 µM
O=C(Cn1cnc([N+](=O)[O-])n1)Nc1ccc(Cl)cc1C(=O)c1ccccc1	> 50 µM (inactive)
CCCC(=O)N(Cc1ccccn1)c1nc2ccccc2s1	> 50 µM (inactive)

Reference: PubChem BioAssay AID1159561 (GlaxoSmithKline (GSK), 2015)
